Measured values as given in patent US11083735B2, “Methods for treating sleep disorders, sleep disturbances, and related symptoms using aminosterol compositions” (Enterin, Inc., priority 2017, dated 2021).

Columns and labels:
[1] = Duration of the aminosterol-induced response after a single oral dose; assay type: in vivo, human; settings: single 200 mg oral dose
From the text: The invention is also based on the discovery of unexpected and unprecedented activity of orally or nasally administered squalamine and related aminosterols (e.g., aminosterol 1436). The activity relates to stimulating a sequence of events within the human GI tract with therapeutic value. With respect to this activity, the sequence of events stimulated by an aminosterol such as squalamine or aminosterol 1436 involves the induction of an intestinal secretory response followed by a period of “small intestinal quieting,” and the subsequent passage of a normally formed bowel movement. These events are best explained as a consequence of the stimulation of a heretofore unknown physiological gastrointestinal response, in this invention shown to be controlled or initiated by an effective oral dose of an aminosterol such as squalamine or the related aminosterol, 1436 (Aminosterol-Induced GI Response). The activity relates to stimulating the neural connections between the enteric nervous system and the brain with therapeutic value, which can thereby impact sleeping disorders, sleeping disturbances, or related symptoms, as described herein. With respect to this activity, the sequence of events stimulated by an aminosterol involves the entrainment of the circadian clock, the suprachiasmatic nucleus, and an improvement in the quality of sleep. […]

dogs, and rodents = settings: administered orally; cited from earlier work
isolated colons = experiment: Isolated perfused colon, migrating muscular contractions (aged mouse; loperamide in young mouse); settings: loperamide introduced into the lumen of a young mouse
From the text: Isolated colons were mounted in an apparatus that permits continuous perfusion through the lumen, and the monitoring of the velocity, frequency and pressure of migrating muscular contractions (MMCs). Similar to the experience in humans, aging in mice is associated with diminished colonic peristaltic activity.
In humans, opiates markedly diminish GI motility and suppress fluid secretion causing constipation. […] When loperamide is introduced into the lumen of a young mouse colonic peristalsis is inhibited. When squalamine is added in presence of continued loperamide perfusion, the dysmotility is overridden.

[2] = single and repeat intravenous administration; cited from earlier work
[3] = in vivo; cited from earlier work

In the case of `CC(C)[C@@H](CC[C@@H](C)[C@H]1CC[C@H]2[C@@H]3[C@H](O)C[C@H]4C[C@@H](NCCCNCCCCNCCCN)CC[C@]4(C)[C@H]3CC[C@]12C)OS(=O)(=O)O` [Aminosterol 1436], the “duration of the aminosterol-induced response” value [1] is listed as “about 4 days” and the anorectic activity (dogs, and rodents) is listed as “no anorectic activity”.

For `CN(C)C(=O)C(CCN1CCC(O)(c2ccc(Cl)cc2)CC1)(c1ccccc1)c1ccccc1` [loperamide, reference compound], the colonic peristalsis (isolated colons) was “inhibited”.

In the case of `CC(C)[C@@H](CC[C@@H](C)[C@H]1CC[C@H]2[C@@H]3[C@H](O)C[C@H]4C[C@@H](NCCCNCCCCN)CC[C@]4(C)[C@H]3CC[C@]12C)OS(=O)(=O)O.C[C@H](O)C(=O)O.O` [squalamine lactate], the well tolerated dose [2] is given as “at least 300 mg/m^2” and the oral bioavailability [3] is given as “poorly bioavailable orally”.
